Two compounds from ChEMBL document CHEMBL5528044, “Exploring the Function of (+)-Naltrexone Precursors: Their Activity as TLR4 Antagonists and Potential in Treating Morphine Addiction” (J Med Chem, 2024) can be followed below.

The source made the active and inactive calls. The calls are words filed in the database; no cut-off is given here.

For one series, the target named is T1, Toll-like receptor 4 (Mus musculus, UniProt Q9QUK6).
T1 sequence (Q9QUK6 whole entry): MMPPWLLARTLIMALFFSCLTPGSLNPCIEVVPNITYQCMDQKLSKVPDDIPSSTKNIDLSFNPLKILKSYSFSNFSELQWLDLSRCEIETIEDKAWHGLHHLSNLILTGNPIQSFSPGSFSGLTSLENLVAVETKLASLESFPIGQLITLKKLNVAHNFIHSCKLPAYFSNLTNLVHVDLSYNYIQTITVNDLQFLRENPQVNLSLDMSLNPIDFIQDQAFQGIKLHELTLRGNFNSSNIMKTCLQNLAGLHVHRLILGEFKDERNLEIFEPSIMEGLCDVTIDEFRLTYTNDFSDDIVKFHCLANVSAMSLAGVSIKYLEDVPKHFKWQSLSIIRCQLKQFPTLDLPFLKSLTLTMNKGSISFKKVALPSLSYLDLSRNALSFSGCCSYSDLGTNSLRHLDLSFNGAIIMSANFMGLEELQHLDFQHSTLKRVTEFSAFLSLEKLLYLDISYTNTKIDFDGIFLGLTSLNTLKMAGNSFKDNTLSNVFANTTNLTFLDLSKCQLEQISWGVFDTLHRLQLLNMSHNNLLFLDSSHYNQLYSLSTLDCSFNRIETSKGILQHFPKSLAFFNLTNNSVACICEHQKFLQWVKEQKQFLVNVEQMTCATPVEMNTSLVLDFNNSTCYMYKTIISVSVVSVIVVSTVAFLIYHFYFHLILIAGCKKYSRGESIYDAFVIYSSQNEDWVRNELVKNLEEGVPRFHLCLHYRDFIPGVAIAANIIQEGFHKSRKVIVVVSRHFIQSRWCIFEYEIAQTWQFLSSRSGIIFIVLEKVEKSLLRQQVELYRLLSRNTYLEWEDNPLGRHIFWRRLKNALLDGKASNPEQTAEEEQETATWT
Description: Antagonist activity at TLR4 in mouse BV-2 cells assessed as inhibition of LPS-induced TNF-alpha production by ELISA. Format: cell-based. A general note: ELISA stands for enzyme-linked immunosorbent assay.

A short description of series [1]: Clearance in Balb/c mouse at 2 mg/kg,iv administration and measured upto 24 hrs by LC-MS/MS analysis. Format: ADME, organism-based. As to conditions: in vivo.
The target in series [2] is T2, Toll-like receptor 4 (Mus musculus) (UniProt Q9QUK6).
T2 sequence (whole entry): T1 sequence (Q9QUK6 whole entry)
Description: Antagonist activity at TLR4 signaling pathway in mouse BV-2 cells assessed as inhibition of LPS-induced TRIF recruitment at 5 uM incubated for 1 hr by co-immunoprecipitation based Western blot analysis. Format: cell-based. As to conditions: filed as antagonist. (In general: In western blotting, separated proteins are transferred to a membrane and probed.)

A short description of series [3]: Volume of distribution at steady state in Balb/c mouse at 2 mg/kg,iv administration and measured upto 24 hrs by LC-MS/MS analysis. Format: ADME, organism-based. As to conditions: in vivo, read-out: Vdss.
Series [4] deals with Mus musculus. Briefly: Inhibition of chronic morphine-induced microglia activation in Balb/c mouse assessed as reduction in TNF-alpha mRNA expression in brain nucleus accumbens region at 0.2 mg/kg,ip administrated for 6 consecutive days by qPCR analysis. Format: functional, organism-based. In general terms: In qPCR the cycle at which signal appears reflects the starting amount.

Series [5] is described as follows: Oral bioavailability in Balb/c mouse at 20 mg/kg administration and measured upto 24 hrs by LC-MS/MS analysis. Format: ADME, organism-based. To be noted: in vivo.
Series [6] concerns Mus musculus. Briefly: Inhibition of morphine-induced addiction behavior in Balb/c mouse assessed reduction in CPP score at 0.2 mg/kg,ip administrated for 6 consecutive days by conditioned place preference assay. Format: functional, organism-based.
Series [7] has as its target T2, Toll-like receptor 4 (Mus musculus). Description: Antagonist activity at TLR4 signaling pathway in mouse BV-2 cells assessed as downregulation of LPS-induced IRAK1 phosphorylation at 5 uM incubated for 1 hr by Western blot analysis. Format: cell-based.
In series [8] the test system is Mus musculus. Briefly: Inhibition of chronic morphine-induced microglia activation in Balb/c mouse assessed as reduction in Iba1 expression in brain ventral tegmental area region at 0.2 mg/kg,ip administrated for 6 consecutive days by immunofluorescence staining based analysis. Format: functional, organism-based.
Series [9] deals with Mus musculus. Description: Inhibition of morphine-induced addiction behavior in Balb/c mouse assessed as decrease in locomotor activity at 0.005 to 0.2 mg/kg,ip administrated on day 4 to 10 by open-field test. Format: functional, organism-based. To be noted: dose 0.005-0.2 mg/kg, time 7.0 day.
Series [10] in a line: Ratio of drug concentration in brain to plasma in Balb/c mouse at 2 mg/kg,iv measured after 30 mins by LC-MS/MS analysis. Format: ADME, organism-based. As to conditions: 0.5 h.
The subject of series [11] is Mus musculus. Description: Inhibition of chronic morphine-induced microglia activation in Balb/c mouse assessed as reduction in Iba1 expression in brain medial prefrontal cortex region at 0.2 mg/kg,ip administrated for 6 consecutive days by immunofluorescence staining based analysis. Format: functional, organism-based.

Broadly, the IC50 is the concentration at which inhibition is half-maximal. In general, clearance refers to a measure of how efficiently the substance is removed, as volume per time. High values mean efficient removal, low ones inefficient removal. As usually defined, the bioavailability is the share of a dose that reaches the circulation, judged against a reference dose that is usually intravenous. `CN1CC[C@@]23c4c5ccc(O)c4O[C@@H]2C(=O)C=C[C@]3(O)[C@@H]1C5` (single isomer, unassigned): the IC50 on Toll-like receptor 4 turned out to be 2.3 µM. For the same compound, in [1], the clearance amounted to 469 mL/min/kg. For the same compound, the outcome in series [2] was Active. For the same compound, the Vd in [3] turned out to be 75.5 L/kg. Further, the inhibition entry with Mus musculus [4], with Mus musculus [6], in the series with Mus musculus [8] and in the series with Mus musculus [11] was “Active” in each case. The same compound yielded a bioavailability in [5] of 41.1%. Besides, the outcome in series [7] was inactive. In the series with Mus musculus [9], the inhibition result is “Dose-Dependent Effect”. Further, the BPR in series [10] stood at 18.4%.

As to `COc1ccc2c3c1O[C@@H]1C(=O)C=C[C@]4(O)[C@H](C2)N(C)CC[C@@]314` (single isomer, unassigned), the IC50 at Toll-like receptor 4 stood at 4.2 µM. In [2], the result was Active. For the same compound, in series [3], the Vd turned out to be 97 L/kg. In addition, the inhibition entry in the series with Mus musculus [4], in the series with Mus musculus [6], in the series with Mus musculus [8] and in the series with Mus musculus [11] was “Active” each time. In [5], this compound had a bioavailability of 54.3%. Further, the result in series [7] was inactive. Besides, the inhibition entry with Mus musculus [9] is “Dose-Dependent Effect”. Moreover, in [10], the BPR was determined as 73.6%.
